The source of these data is ChEMBL document CHEMBL1201862, “PubChem BioAssay data set” (2004).

Some test systems named below: BT-549; DLD-1; KM-20L2; XF498; DMS-273; HOP-18; M19-MEL; SNB-78.
Common to all, as to experiment: NCI anticancer screen, dose series, 48 h

The structures appear in SMILES notation.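 Method: 48-hour compound exposure of cells in 96-well plates, five concentrations, linear interpolation of endpoints. GI50: concentration for 50% inhibition of growth.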 Active and inactive are the calls of the source. Rule as the data show it: active = GI50 up to about 1.1 µM and inactive = higher.

With `CC1=NN(C(=O)c2ccccc2O)C(=O)/C1=C/c1ccccc1O`, the GI50 is 0.438 µM (active) in the assay with BT-549, 0.0807 µM (active) in the assay on DLD-1, 11.5 µM (inactive) in the assay with KM-20L2 and 0.365 µM (active) in the assay on XF498.
In the case of `CC(C)(C)c1ccc(CN2CCN(C(c3ccccc3)c3ccc(Cl)cc3)CC2)cc1` (stereo not given), the GI50 in the assay on BT-549 is > 100 µM (inactive).
In the case of `Nc1nc(N)c2nc(CNc3ccc(C(=O)O)cc3)[nH]c2n1`, the GI50 with BT-549 was > 100 µM (inactive).
Regarding `CNC(=O)OCc1nccc2c(C)c3[nH]c4ccc(OC)cc4c3cc12`, the GI50 is 2.99 µM (inactive) in the assay on DLD-1; 7.23 µM (inactive) in the assay with DMS-273; 2.47 µM (inactive) with HOP-18; 3.11 µM (inactive) in the assay with KM-20L2; 5.61 µM (inactive) with M19-MEL; 16.6 µM (inactive) with SNB-78. In the assay with XF498, the GI50 is 14.1 µM (inactive).
In the case of `CCOc1ccc(NC2=CC(=O)C(=O)c3ccccc32)cc1`, the GI50 is 1.66 µM (inactive) in the assay with BT-549; 4.43 µM (inactive) in the assay on DLD-1; 2.88 µM (inactive) with DMS-273; 2.6 µM (inactive) in the assay on HOP-18; 18.7 µM (inactive) in the assay on KM-20L2; 0.647 µM (active) in the assay with M19-MEL. Moreover, the figures for the GI50 in the assay on SNB-78 and in the assay on XF498 were 15.5 µM (inactive) and 2.25 µM (inactive), respectively.
For the molecule `COc1cc(C2C3=C(COC3=O)OC(C)(C)Oc3cc4c(cc32)OCO4)cc(OC)c1OC` (stereo not given), the GI50 in the assay with BT-549 is 6.67 µM (inactive).
Same read-out and setting: to `COc1cccc(-c2nc(O)c3ccccc3n2)c1` belongs 24.8 µM (inactive).
`N#Cc1c2c(c(Cl)n3c1nc1ccccc13)CCCC2`: the GI50 with DLD-1 is 10.6 µM (inactive); in the assay on DMS-273 it was 1.09 µM (active); in the assay on KM-20L2 it was 2.49 µM (inactive); in the assay with M19-MEL, 3.61 µM (inactive); in the assay on SNB-78 it was 3.89 µM (inactive); with XF498 it was 2.14 µM (inactive).
In the case of `C=CCN(CC=C)CC(C(C)=O)C(c1ccccc1)c1c(O)c2ccccc2oc1=O` (stereo not given), the GI50 was > 100 µM (inactive) in the assay with DLD-1; > 100 µM (inactive) with DMS-273; 82.8 µM (inactive) in the assay with KM-20L2; > 100 µM (inactive) in the assay on M19-MEL; > 100 µM (inactive) in the assay on SNB-78; > 100 µM (inactive) in the assay on XF498.
Regarding `Nn1c(=O)n(Cc2ccccc2)n(-c2ccccc2)c1=O`, the GI50 with DLD-1, in the assay on DMS-273, in the assay on SNB-78 and in the assay on XF498 was > 100 µM (inactive) each time.
For `CC1=CC=CC(C)(C)CC1(O[Si](C)(C)C)C(F)(F)F` (stereo not given), the GI50 in the assay on BT-549 is > 100 µM (inactive).
`CCOc1ccccc1NC(=O)CC1SC(Nc2ccc([N+](=O)[O-])cc2)=NC1=O` (stereo not given): the GI50 in the assay on DLD-1 was 22.9 µM (inactive); in the assay with HOP-18, 17.6 µM (inactive); in the assay on KM-20L2, 19.4 µM (inactive); in the assay on M19-MEL, 25.4 µM (inactive); with SNB-78, 28.8 µM (inactive); with XF498 it was 15.8 µM (inactive).
Consider `O=C(NNCc1ccco1)c1cc2ccccc2[nH]1`, for which the GI50 in the assay with BT-549 was > 52.2 µM (inactive).
In the case of `O=C1CC(C(=O)N2CCCCC2)n2c(=O)n(-c3ccccc3)c(=O)n2C1` (stereo not given), in the assay with BT-549, the GI50 is > 100 µM (inactive).
For the molecule `CC(=O)c1ccc(NC(=O)/C(CC(=O)c2sc(-c3cccnc3)nc2C)=N/NC(N)=O)cc1`, the GI50 with KM-20L2, with M19-MEL, with SNB-78 and in the assay on XF498 was > 100 µM (inactive) in each case.
As to `COC(=O)c1ccccc1C1CN=NC12Cc1c(C)cc(C)cc1C2=O` (stereo not given), the GI50 with BT-549 was > 100 µM (inactive).
Consider `Nc1ccc2nc3ccc(N)cc3[n+](-c3ccccc3)c2c1`, for which, in the assay on BT-549, the GI50 is 92.7 µM (inactive).
As to `CCOc1ccccc1NC(=O)C1=C(C)NC(C)=C(C(=O)Nc2ccccc2OCC)C1c1ccc2c(c1)OCO2`, the GI50 is 22.2 µM (inactive) with DLD-1; 26.4 µM (inactive) with KM-20L2; 30.1 µM (inactive) in the assay on M19-MEL; 24.6 µM (inactive) in the assay on SNB-78; 12.8 µM (inactive) in the assay on XF498.
Regarding `COC(=O)N1C=CC2=C(C)C3Nc4ccccc4C3C(C)=C2C1` (stereo not given), the GI50 with DLD-1 was 1.74 µM (inactive); with DMS-273, 0.301 µM (active); with KM-20L2 it was 0.697 µM (active); with M19-MEL it was 2.78 µM (inactive); in the assay on SNB-78, 0.546 µM (active); in the assay on XF498 it was 2.48 µM (inactive).
Consider `Cc1ccc(C(=O)/C=C2\Nc3c(c(=O)oc4ccccc34)N=C2NC23CC4CC(CC(C4)C2)C3)cc1`, for which the GI50 was 89.9 µM (inactive) with DLD-1; > 100 µM (inactive) in the assay with DMS-273; > 100 µM (inactive) with KM-20L2; > 100 µM (inactive) in the assay on M19-MEL; > 100 µM (inactive) in the assay on XF498.
Turning to `CN(C)CCNC(=O)c1ccc(Cl)c2c(Nc3ccc(S(=O)(=O)N=C(N)N)cc3)c3ccccc3nc12`, the GI50 in the assay with DLD-1 is 5.62 µM (inactive); in the assay on DMS-273, 1.79 µM (inactive); with KM-20L2, 5.53 µM (inactive); in the assay with M19-MEL, 3.86 µM (inactive); with SNB-78 it was 12.1 µM (inactive); with XF498, 4.51 µM (inactive).
Take `O=c1ccn(C2OC(CO)C(P(=O)(O)O)C2O)c(=O)[nH]1` (stereo not given): the GI50 with BT-549 was > 100 µM (inactive).
With `NC(=S)N/N=C1\NC(=O)/C(=C/c2ccc3c(c2)OCO3)S1`, in the assay with BT-549, the GI50 is 25.1 µM (inactive).
As for `CC1(C)C(=O)N(CCCCCCN2C(=O)C(C)(C)c3ccccc32)c2ccccc21`, the GI50 in the assay on DMS-273 was 40.9 µM (inactive); with HOP-18, 81.1 µM (inactive); in the assay on KM-20L2 it was 37.2 µM (inactive); in the assay with M19-MEL, 22.6 µM (inactive); in the assay with SNB-78 it was 96.4 µM (inactive); in the assay with XF498 it was 16.5 µM (inactive).
With `CC(=O)CC1(CBr)Nc2ccc([N+](=O)[O-])cc2NC1=O` (stereo not given), in the assay with BT-549, the GI50 was 58.1 µM (inactive).
Still for that read-out and setting: to `CC(=O)Oc1cc(Cl)c(C)c2c1[C@H]1CC[C@]3(C)[C@@H](OC(C)=O)CC[C@H]3[C@@H]1CC2` belongs > 100 µM (inactive); to `COc1cc(/C=N\O)nc(-c2ccccn2)c1`, 1.5 µM (inactive).
On the same count and under the same terms, for `CC(C)N(C(C)C)S(=O)(=O)CC12CCC(C/C1=N\O)C2` (stereo not given) the value was > 100 µM (inactive); for `O=C1c2[nH]c3ccccc3c2CCN2CCCCC12` (stereo not given), 27.6 µM (inactive); for `COc1ccc2c(c1)C(N)=C(c1ccccc1)C2=O`, > 100 µM (inactive).
For `O=C1OC(c2ccccc2)=N/C1=C\c1ccc(F)cc1`, in the assay on BT-549, the GI50 was 75.3 µM (inactive).
As for `C1=C2/CC[C@H](Sc3ccccc3)[C@H]2C2(CCCCC/1)OCCO2`, the GI50 with DLD-1 is 61.4 µM (inactive); with DMS-273, 39.4 µM (inactive); in the assay on HOP-18, 72.8 µM (inactive); in the assay on KM-20L2, 21.1 µM (inactive); in the assay on M19-MEL it was 25.1 µM (inactive); in the assay on SNB-78, 94 µM (inactive).
Consider `COC(=O)c1c(O)ccc2c1c1c(n2Cc2cc(OC)cc(OC)c2)C(=O)c2ccccc2C1=O`, for which the GI50 with BT-549 is 6.71 µM (inactive).
Take `CCOC(=O)c1c(Br)c(-c2ccc([N+](=O)[O-])cc2)c(Br)n1C`: the GI50 with BT-549 was > 10 µM (inactive).
Consider `Cc1c(C)c2c(c(N)c1C#N)C(=O)N(Cc1ccc(S(N)(=O)=O)cc1)C2=O`, for which the GI50 in the assay with BT-549 is 19.4 µM (inactive).
For the molecule `N#CI1OC(C(F)(F)F)(C(F)(F)F)c2ccccc21`, in the assay on BT-549, the GI50 was 19.6 µM (inactive).
With `CC1=CP(=O)(OC(C)C)CC(C)=C1Cl` (stereo not given), the GI50 with DLD-1 is > 100 µM (inactive); with DMS-273 it was 98.4 µM (inactive); with KM-20L2 it was > 100 µM (inactive); with M19-MEL it was > 100 µM (inactive); with SNB-78, > 100 µM (inactive).
Take `CC(C)OP(=O)(OC(C)C)/C(C#N)=C/c1ccco1`: the GI50 in the assay with BT-549 is > 100 µM (inactive).
For the molecule `O=[N+]([O-])c1ccc(Cl)c(/C=N/C23CC4CC(CC(C4)C2)C3)c1`, the GI50 with BT-549 was > 10 µM (inactive).
Consider `COc1ccc(/C=C2\C[C@H]3[C@@H]4CC=C5C[C@@H](OC(C)=O)CC[C@]5(C)[C@H]4CC[C@]3(C)C2=O)cc1OC`, for which the GI50 in the assay with BT-549 is 63.1 µM (inactive).
`N#CC1C=Cc2ccccc2N1C(=O)Oc1ccccc1` (stereo not given): the GI50 in the assay on BT-549 was 53.5 µM (inactive).
Consider `O=C(O)CN(CC(=O)O)Cc1ccn(-c2cccc(-n3ccc(CN(CC(=O)O)CC(=O)O)n3)n2)n1`, for which the GI50 in the assay on BT-549 is > 100 µM (inactive).
For the molecule `O=C(Nn1c(-c2ccccc2)nc2ccccc2c1=O)c1ccc(O)cc1`, in the assay on BT-549, the GI50 is > 100 µM (inactive).
Turning to `O=c1c2c([nH]c3cc4c(cc13)OCO4)-c1ccccc1C2`, the GI50 with DLD-1 is 23.5 µM (inactive); in the assay with DMS-273 it was 19.2 µM (inactive); in the assay with HOP-18 it was 24.2 µM (inactive); with KM-20L2, 19 µM (inactive); with SNB-78, 30.5 µM (inactive); in the assay on XF498, 24.2 µM (inactive).
In the case of `Nc1nc(N)c2c(n1)NC(c1ccccc1)CC(/C=C/c1ccc(Cl)cc1)=N2` (stereo not given), in the assay with BT-549, the GI50 is 17.5 µM (inactive).
With `COc1cc2cc(C(=O)N3CC(CCl)c4c3cc(NC(=O)C(C)(C)c3ccccc3[N+](=O)[O-])c3ccccc43)[nH]c2c(OC)c1OC` (stereo not given), in the assay with BT-549, the GI50 is 8.87 µM (inactive).
As for `CSc1nc(-c2cc3c(c(SC)n2)CCCCC3)cc2c1CCCCC2`, the GI50 in the assay on BT-549 is > 100 µM (inactive).
For the molecule `COc1cc(C(=O)OC2CC34CCNC35CC(OC5(OC)C2O)c2cc3c(cc24)OCO3)ccc1O` (stereo not given), in the assay on BT-549, the GI50 is > 100 µM (inactive).
On to `CN1CCc2c(sc3nc(Nc4ccccc4)n(N)c(=O)c23)C1`, for which the GI50 in the assay with BT-549 is > 100 µM (inactive).
Take `CCOC(=O)/C=C\C(C#N)(C#N)/N=C/c1ccsc1`: the GI50 with BT-549 was 5.42 µM (inactive).
Same read-out and setting: to `O=C1CSC(c2c[nH]c3ccccc23)N1c1ccccc1[N+](=O)[O-]` (stereo not given) belongs > 100 µM (inactive); to `O=C1/C(=C/c2ccc([N+](=O)[O-])cc2)CCCc2ccccc21`, > 100 µM (inactive).
Regarding `Cc1cnc2nc(-c3ccc(F)cc3)cc(O)c2c1`, in the assay on BT-549, the GI50 is > 100 µM (inactive).
In the case of `CSc1ccc2c(c1)c(CCN)c(C)n2Cc1ccccc1Cl`, the GI50 in the assay with BT-549 was 3.26 µM (inactive).
Same read-out and setting: to `COC1=CC(=O)c2c(c(-c3nc(C)cs3)cn2C)C1=O` belongs 3.97 µM (inactive); to `CC[C@H]1C=CCC[C@@]2(C[C@@H]3CC[C@@H]4[C@H](C(=O)OCCCCCCCCCCCCCCCC(=O)O)[C@]5(CCC[C@@H](C)O5)NC(=[N+]34)N2)O1` [CRAMBESCIDIN 657], 0.314 µM (active).
